Target: T1, human vasopressin V1a receptor subtype (Homo sapiens, UniProt P37288)
T1 construct: host or cells: CHO cells (pZeoSV vector for the Thibonnier line)
Assay: Vasopressin binding in Chinese Hamster Ovary cell membranes expressing human vasopressin V1a subtype receptors
Settings: 100 nM, CHO cell membranes, [3H]Manning ligand, values without parentheses
Outline: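 Membranes from CHO cells expressing human V1a receptor were incubated with [3H]Manning ligand (added as 20 μL of 8 nM) in pH 7.4 Tris buffer with MgCl2, BSA and protease inhibitors, 60 min at room temperature. Bound radioactivity was counted after filtration; values are percent inhibition at a stated concentration or IC50.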

T1 sequence (P37288 whole entry): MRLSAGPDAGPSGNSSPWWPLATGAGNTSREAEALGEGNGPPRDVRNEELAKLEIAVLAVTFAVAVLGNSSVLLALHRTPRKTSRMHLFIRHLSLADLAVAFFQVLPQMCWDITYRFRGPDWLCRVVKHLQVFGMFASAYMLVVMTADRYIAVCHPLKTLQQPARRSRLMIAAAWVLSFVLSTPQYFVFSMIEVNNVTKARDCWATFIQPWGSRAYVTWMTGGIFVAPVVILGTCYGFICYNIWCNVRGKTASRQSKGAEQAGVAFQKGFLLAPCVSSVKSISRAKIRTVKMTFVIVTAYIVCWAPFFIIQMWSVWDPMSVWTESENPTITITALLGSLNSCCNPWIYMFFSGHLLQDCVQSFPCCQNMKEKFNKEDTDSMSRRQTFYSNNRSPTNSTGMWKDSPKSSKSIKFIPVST

| SMILES | inhibition at 0.1 µM [%] |
| --- | --- |
| Cc1ccccc1-c1ccc(C(=O)N2Cc3ccc(C(=O)N4CCN(C(C)C)CC4)n3Cc3ccccc32)cc1C [Example 233, {10-[(2,2′-Dimethyl[1,1′-biphenyl]-4-yl)carbonyl]-10,11-dihydro-5H-pyrrolo[2,1-c][1,4]benzodiazepin-3-yl}(4-isopropyl-1-piperazinyl)methanone] | 31 |
| COc1ccccc1-c1ccc(C(=O)N2Cc3ccc(C(=O)N4CCN(C(C)C)CC4)n3Cc3ccccc32)cc1 [Example 234, (4-Isopropyl-1-piperazinyl){10-[(2′-methoxy[1,1′-biphenyl]-4-yl)carbonyl]-10,11-dihydro-5H-pyrrolo[2,1-c][1,4]benzodiazepin-3-yl}methanone] | 26 |
| COc1cccc(-c2ccc(C(=O)N3Cc4ccc(C(=O)N5CCN(C(C)C)CC5)n4Cc4ccccc43)cc2C)c1 [Example 235, (4-Isopropyl-1-piperazinyl){10-[(3′-methoxy-2-methyl[1,1′-biphenyl]-4-yl)carbonyl]-10,11-dihydro-5H-pyrrolo[2,1-c][1,4]benzodiazepin-3-yl}methanone] | 9 |
| COc1cc(C(=O)N2Cc3ccc(C(=O)N4CCN(C(C)C)CC4)n3Cc3ccccc32)ccc1-c1cccc2ccccc12 [Example 236, (4-Isopropyl-1-piperazinyl){10-[3-methoxy-4-(1-naphthyl)benzoyl]-10,11-dihydro-5H -pyrrolo[2,1-c][1,4]benzodiazepin-3-yl}methanone] | 6 |
| COc1cc(C(=O)N2Cc3ccc(C(=O)N4CCN(C(C)C)CC4)n3Cc3ccccc32)ccc1-c1ccccc1C [Example 237, (4-isopropyl-1-piperazinyl){10-[(2-methoxy-2′-methyl[1,1′-biphenyl]-4-yl)carbonyl]-10,11-dihydro-5H-pyrrolo[2,1-c][1,4]benzodiazepin-3-yl}methanone] | 39 |
| COc1cc(-c2ccccc2C)c(Cl)cc1C(=O)N1Cc2ccc(C(=O)N3CCN(C(C)C)CC3)n2Cc2ccccc21 [Example 238, {10-[(6-Chloro-3-methoxy-2′-methyl[1,1′-biphenyl]-4-yl)carbonyl]-10,11-dihydro-5H -pyrrolo[2,1-c][1,4]benzodiazepin-3-yl}(4-isopropyl-1-piperazinyl)methanone] | 3 |
| COc1cccc(-c2cc(OC)c(C(=O)N3Cc4ccc(C(=O)N5CCN(C(C)C)CC5)n4Cc4ccccc43)cc2Cl)c1 [Example 239, {10-[(6-Chloro-3,3′-dimethoxy[1,1′-biphenyl]-4-yl)carbonyl]-10,11-dihydro-5H-pyrrolo[2,1-c][1,4]benzodiazepin-3-yl}(4-isopropyl-1-piperazinyl)methanone] | 2 |
| Cc1cc(C(=O)N2Cc3ccc(C(=O)N4CCN(C(C)C)CC4)n3Cc3ccccc32)ccc1-c1ccccc1C(F)(F)F [Example 240, (4-Isopropyl-1-piperazinyl)(10-{[2-methyl-2′-(trifluoromethyl)[1,1′-biphenyl]-4-yl]carbonyl}-10,11-dihydro-5H-pyrrolo[2,1-c][1,4]benzodiazepin-3-yl)methanone] | 1 |
| COc1ccccc1-c1ccc(C(=O)N2Cc3ccc(C(=O)N4CCN(C(C)C)CC4)n3Cc3ccccc32)cc1OC [Example 241, {10-[(2,2′-Dimethoxy[1,1-biphenyl]4-yl)carbonyl]-10,11-dihydro-5H-pyrrolo[2,1-c][1,4]benzodiazepin-3-yl}(4-isopropyl-1-piperazinyl)methanone] | -4 |
| COc1cccc(-c2ccc(C(=O)N3Cc4ccc(C(=O)N5CCN(C(C)C)CC5)n4Cc4ccccc43)cc2OC)c1 [Example 242, {10-[(2,3′-Dimethoxy[1,1′-biphenyl]-4-yl)carbonyl]-10,11-dihydro-5H-pyrrolo[2,1-c][1,4]benzodiazepin-3-yl}(4-isopropyl-1-piperazinyl)methanone] | 33 |
